Test results from ChEMBL document CHEMBL3045643, “Synthesis, crystal structure, and anticancer properties of cyclic monocarbonyl analogs of curcumin” (Med Chem Res, 2011).
The source made the active and inactive calls. No cut-off for these calls is given here.

Legend:
ACHN [1] = experiment: Cytotoxicity against Homo sapiens (human) ACHN cells at 0.01 to 30 uM by CCK8-based colorimetric analysis; type: functional, cell-based
PANC-1 [2] = experiment: Cytotoxicity against Homo sapiens (human) PANC1 cells at 0.01 to 30 uM by CCK8-based colorimetric analysis; type: functional, cell-based
[3] = Cytotoxicity against Homo sapiens (human) […] cells at 0.01 to 30 uM by CCK8-based colorimetric analysis; type: cell-based; settings: wi-38, 30 µM
NCI-H460 = experiment: Cytotoxicity against Homo sapiens (human) H460 cells at 0.01 to 30 uM by CCK8-based colorimetric analysis; type: functional, cell-based
Calu-1 [4] = experiment: Cytotoxicity against Homo sapiens (human) Calu1 cells at 0.01 to 30 uM by CCK8-based colorimetric analysis; type: functional, cell-based
HCT-116 [5] = experiment: Cytotoxicity against Homo sapiens (human) HCT116 cells at 0.01 to 30 uM by CCK8-based colorimetric analysis; type: functional, cell-based
PANC-1 [6] = experiment: Cytotoxicity against Homo sapiens (human) PANC1 cells by CCK8-based colorimetric analysis; type: functional, cell-based
HCT-116 [7] = experiment: Cytotoxicity against Homo sapiens (human) HCT116 cells by CCK8-based colorimetric analysis; type: functional, cell-based
[8] = Cytotoxicity against Homo sapiens (human) H460 cells by CCK8-based colorimetric analysis; type: functional, cell-based; settings: NCI-H460
ACHN [9] = experiment: Cytotoxicity against Homo sapiens (human) ACHN cells by CCK8-based colorimetric analysis; type: functional, cell-based
Calu-1 [10] = experiment: Cytotoxicity against Homo sapiens (human) Calu1 cells by CCK8-based colorimetric analysis; type: functional, cell-based

O=C1/C(=C/c2ccccc2)CN(Cc2ccccc2)C/C1=C\c1ccccc1
Activity (ACHN [1]): Active
Activity (PANC-1 [2]): Active
Activity [3]: Non-toxic
Activity (NCI-H460): Active
Activity (Calu-1 [4]): Active
Activity (HCT-116 [5]): Active

COc1ccccc1/C=C1\C(=O)/C(=C\c2ccccc2OC)c2ccccc21
Activity (ACHN [1]): Active
Activity (PANC-1 [2]): Active
Activity [3]: Non-toxic
Activity (NCI-H460): Active
Activity (Calu-1 [4]): Active
Activity (HCT-116 [5]): Active

O=C1/C(=C/c2cccc(O)c2)CN(Cc2ccccc2)C/C1=C\c1cccc(O)c1
Activity (ACHN [1]): Active
Activity (PANC-1 [2]): Active
Activity [3]: Non-toxic
Activity (NCI-H460): Active
Activity (Calu-1 [4]): Active
Activity (HCT-116 [5]): Active

COc1ccc(/C=C2\CN(Cc3ccccc3)C/C(=C\c3ccc(OC)cc3)C2=O)cc1
Activity (ACHN [1]): Active
Activity (PANC-1 [2]): Active
Activity [3]: Non-toxic
Activity (NCI-H460): Active
Activity (Calu-1 [4]): Active
Activity (HCT-116 [5]): Active

CCOc1ccc(/C=C2\CN(Cc3ccccc3)C/C(=C\c3ccc(OCC)cc3)C2=O)cc1
Activity [3]: Non-toxic
IC50 (PANC-1 [6]): 7.2 µM
IC50 (HCT-116 [7]): 8.3 µM
IC50 [8]: 5.5 µM
IC50 (ACHN [9]): 6.9 µM
IC50 (Calu-1 [10]): 8.1 µM
